Residues, ends and D or L forms follow the SMILES beside them. *: point of attachment. AFC = O=c1cc(C(F)(F)F)c2ccc(N*)cc2o1; Cbz = O=C(OCc1ccccc1)*; CH2F = FC*
Legend:
Taenia solium crude mix = experiment: Substrate cleavage screen of AFC-linked peptides (Step II), crude mix; assay type: biochemical; settings: 0.4 M Citrate, pH 4.9, 18 h, 37 °C
Description: (§1) In this step, the most efficacious substrate for detection of the cysteine protease (high Kcat substrate) was determined in vitro along with those substrates which were not well cleaved (low kcat substrates). From this point forward, the following conditions refer to all assays: "assay buffer" refers to 0.4 M Citrate, pH 4.9 (the pH optima of the protease). Incubation time was 18 hours at 37°C. These conditions were determined by our preliminary data to be best for kinetic evaluation of the protease. […] The experiments were conducted in 6X50 […] Borosilicate mini-culture tubes (Fisher Scientific), and a fluorometer (Turner) was employed for detection of AFC cleavage.
In order to prepare the Taenia solium "crude mix", dry frozen Taenia solium cysts were obtained from 6-12 month old cysticercotic pigs from villages in an endemic area of porcine cysticercosis in Mexico. Metacestodes were carefully dissected from the parasitized tissues, washed three times with PBS, and lyophilized. Parasite extracts were prepared by suspending 0.1 grams of dry frozen cysts in 10 ml of extraction buffer (0.4 M citrate, pH 4.9) at room temperature. The cysts were vortexed for three five-minute intervals with intermittent incubations (5 min) at 4 °C. Particulate material was removed by centrifugation (20,000 x g, 120 min) and the resulting soluble fraction filtered ([…]). In assay buffers, the detectable amount of the crude mix, as described above, was employed and incubated with the target substrates.
(§2) Vmax for the cleavage of substrates by the purified target protease and Vmax for substrates cleaved by the crude mix protease were each calculated using conventional kinetic modeling calculations already described in the art.

[1] = tested on: purified Taenia solium cysteine protease; experiment: Protease inactivator inhibition assay against cocktail, EC100 and Ki (Step VII); assay type: biochemical; settings: for ranking by EC100: dilution study, nanomolar levels; for % Inhibition of T. solium CP in vitro: concentration not stated in Table 4
Excerpt: Once the protease inactivators were synthesized in the organic laboratory, they were to be tested for the lowest efficacious concentrations at which they induced 100% inhibition of the target protease (EC100). The top percent cocktail that was employed in the final vehicle selection step of Step III was employed as the source of competition for the inhibitors. In this case, this was the 7.9% cocktail that was comprised of Z-FR-AFC, Z-FAR-AFC, Z-AP-AFC, Z-AAK-AFC, and Z-VLR-AFC. The final result would be a ranking of transition state candidate protease inactivators with a high ranking directly correlating to a low EC100 value. The following steps describe the assay: • Step A: Initial Screening. To set up the test control, each protease inactivator was first incubated with the 5% cocktail (which provided the final differentiation of vehicles in Step III). To begin with, the protease inactivator was incubated at a concentration of 3 X 10^-9M in 500 ul of assay buffer (0.2 M Citrate, pH 4.9, supplemented with 10mM L-cysteine). This concentration was determined by a series of inhibitor dilutions to be the best inhibitor concentration at which a differentiation in inhibitor potential could be noted. Next, a concentration equal to 4 X 10^-5M for each of the individual cocktail components, was added to the mix. The components were allowed to equilibrate for a period of 30 minutes. Finally, active purified enzyme was added to the tubes at a concentration which was always at least 50 times less than the concentration of the lowest concentration in the mix (so as to provide saturating conditions.) This concentration varied from purification to purification, and the amount that was added depended upon the yield and specific activity of the purified protease. Positive controls were set up similarly as described for test controls, except that solvent was added in substitution for the protease inactivator (in a volume equal to the […] volume addition). All of the protease inactivators could be dissolved in dimethylsulfoxide (DMSO), and therefore, this was the solvent of choice. Negative controls were set up by adding the protease inactivator and the cocktail substrates in a tube, without the protease. All potential non-proteolytic induced liberation of AFC was therefore controlled for in this tube. All controls were set up in triplicate, and experiments repeated a minimum of five times. The assays were incubated at 37°C, overnight. Percent inhibition was calculated as: %Inhibition = ((AFC positive for "SI"−AFC negative for "SI")−(AFC test−AFC negative for "SI"))/(AFC positive for "SI"−AFC negative for "SI") × 100 [formula] • Step B: Inhibitor Dilution Studies and formation of a ranked list of protease inactivators based upon EC100 values. […] Because of this, a dilution study was required in order to determine a viable ranking. Thus, the concentration of each of the protease inactivators was lowered with a dose response setup until the most efficacious concentration for 100% inhibition (EC100) could be determined. The inhibitors had to be diluted to nanomolar levels in order to establish a differentiable EC100 pattern. The final result of the assay was a ranked candidate list of protease inactivators. A lower EC100 was attributable to a higher ranking and vice-versa. • Step C: Determination of Inhibitor Ki and mode of inhibition, and re-ranking of EC100 list with inhibitor Ki. Ki of each of the top ranked protease inactivators, based upon low EC100 values, was assessed next for the top 5 EC100 inhibitors.
In order to determine Ki, all of the high Vmax cocktail substrates were employed for Ki determination (since Ki of the inhibitor for the enzyme is the same regardless of the substrate). To insure the highest accuracy, Ki was to be determined upon a minimum of at least three of the high Kcat substrates. Nonlinear fitting and the Dixon plot were both employed to determine Ki of the top ranked protease inactivators. […]

Taenia crassiceps cysts = experiment: Short-term protection of BALB/c mice from cysticercosis infection; assay type: in vivo
T. solium (cysteine) = experiment: Selectivity test (Steps VI and IX), T. solium cysteine protease; assay type: biochemical, Taenia solium; settings: inhibitor 3 X 10^-10 M
Description: (§3) In order to perform the assay, the vehicle (for Step VI) or inhibitor (for Step IX) were incubated with the appropriate substrate in the correct assay buffer and allowed to equilibrate. Subsequently, the protease was added, and the assay was allowed to incubate for an appropriate time. The concentrations used in this experiment were as follows: Vehicle was set up at 4 X 10^-5 M in final assay buffer; Inhibitor was set up at 3 X 10^-10 M in the final assay buffer. Preferably the dosages employed should be the minimal amount of vehicle or inhibitor necessary to induce inhibition. […] Substrates were set up based upon the preferred substrate for cleavage of the particular enzyme.
(§4) Positive controls were set up similarly as described for test controls, except that a solvent blank was added in substitution for the inhibitor or vehicle (in a volume equal to the volume of inhibitor or vehicle addition). All of the inhibitors and vehicles could be dissolved in dimethylsulfoxide (DMSO), and therefore, this was the solvent of choice. Negative controls were set up by adding the inhibitor or vehicle and the preferred substrates in a tube without the protease. All potential non-proteolytic liberation of AFC was therefore controlled for in this tube.
(§5) All controls were set up in triplicate, and experiments were repeated a minimum of five times.
(§6) Percent inhibition was calculated as: %Inhibition = ((AFC positive for "SI"−AFC negative for "SI")−(AFC test−AFC negative for "SI"))/(AFC positive for "SI"−AFC negative for "SI") × 100 [formula]
(§7) In this preliminary test, we employed the following human-derived enzymes (with indicated mechanistic class in parentheses): Cathepsin B (cysteine), Cathepsin L (cysteine), Cathepsin H (cysteine), Cathepsin D (aspartic), Trypsin (serine), the purified Taenia solium cysteine protease, and the Taenia solium crude mix. Cathepsin B was prepared in an assay buffer of 10 mM L-cysteine in 0.4 M Citrate buffer, pH 6.1, using Z-ARR-AFC as the cleavage substrate. Cathepsin L was prepared in an assay buffer of 10 mM L-cysteine in 0.4 M Citrate buffer, pH 5.5, using Z-FR-AFC as the cleavage substrate. Cathepsin H was prepared in an assay buffer of 10 mM L-cysteine in 0.15 M PBS buffer, pH 6.8, using L-R-AFC as the cleavage substrate. Cathepsin D was prepared in an assay buffer of 0.15 M PBS, pH 7.1, using Z-RGFFP-AFC as the cleavage substrate. Trypsin was prepared in an assay buffer of 0.15 M PBS, pH 8.0, supplemented with 100 mM CaCl2 and with Z-R-AFC as the cleavage substrate. Enzyme was incubated so that it was at least 50 times less than the concentration of substrate in order to insure saturating conditions.

BALB/c mice = experiment: Observation of side effects in treated mice; assay type: in vivo
Cathepsin L = Cathepsin L (Homo sapiens, UniProt P07711); experiment: Selectivity test (Steps VI and IX), Cathepsin L; assay type: biochemical; settings: inhibitor 3 X 10^-10 M; pH 5.5, substrate Z-FR-AFC; 0.0003 µM
Sequence of Cathepsin L (P07711 114-333): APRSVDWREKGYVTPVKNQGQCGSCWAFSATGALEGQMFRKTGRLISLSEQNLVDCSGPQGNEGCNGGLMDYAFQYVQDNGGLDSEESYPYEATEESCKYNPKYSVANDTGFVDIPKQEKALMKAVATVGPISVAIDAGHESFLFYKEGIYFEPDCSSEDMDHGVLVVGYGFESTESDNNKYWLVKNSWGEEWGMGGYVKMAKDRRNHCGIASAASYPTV
Description: as §3, §4, §5, §6, §7

[2] = tested on: normal BALB/c mouse splenocytes; experiment: Splenocyte proliferation (3H-thymidine incorporation) with or without Con-A; assay type: cell-based
Trypsin = experiment: Selectivity test (Steps VI and IX), Trypsin; assay type: biochemical, human; settings: inhibitor 3 X 10^-10 M; pH 8.0, substrate Z-R-AFC; 0.0003 µM
Description: as §3, §4, §5, §6, §7

[3] = tested on: purified Taenia solium cysteine protease; experiment: Substrate cleavage screen of AFC-linked peptides (Step II), purified protease; assay type: biochemical; settings: 0.4 M Citrate, pH 4.9, 0.01 M cysteine, 18 h, 37 °C
Description: as §1
Since the full 8,420 amino acid possibilities for cleavage were not available, representative substrates were employed. […] In order to choose this subset, representative amino acids (i.e., selected from the categories of acidic, basic, nonpolar, uncharged) were chosen so as to create as many categories of motifs as feasible for the P3-P1 positions with a set of 67 small peptides (see lists at Fig. 4a and Fig. 4b). The target cysteine protease from Taenia solium was isolated using the purification methods described previously in the patent WO 00/63350.
Approximately 1 ug (or a proteolytically detectable amount) of the purified target cysteine protease was incubated individually, with 1 ug of each of the available substrates in 500 uL of assay buffer. During this setup, the substrate was pre-incubated in the assay buffer for a short period of time (20 minutes) in order to reach an equilibrated status before the addition of the protease. Cleavage assessments were based upon the property of the protease to cleave synthetic peptide substrates linked at the C-terminus to 7-Amino-4-Trifluoromethyl Coumarin (AFC) as previously described. AFC linked tripeptides, dipeptides, and monopeptides, (with a variety of permutations at P3-P1) were available from Enzyme Systems Products (Livermore, CA), and were used as the source of the subset. Following incubation of enzyme preparations overnight (18 h, 37 °C) with peptide in assay buffer (Citrate, pH 4.9, supplemented with 0.01 M cysteine), free AFC concentrations were measured fluorometrically (excitation 405 nm, emission 505 nm). The proteolytic cleavage released the AFC group, which was measurable as a free molecule by a standard fluorometer and converted into molar quantities, based upon a previously established standard curve. The simplicity of AFC detection by the fluorometer was a key factor which expedited and simplified the procedures.
In the assay, 1 ug of the purified Taenia cysteine protease was added to a saturating amount of Z-Phe-Arg-AFC (4X10^-5 M) in assay buffer. The experiment was conducted in triplicate and repeated at least 5 times until we were certain that variability in AFC cleavage was not statistically significant.
as §2

In the case of `CC(C)C[C@H](NC(=O)[C@@H](NC(=O)OCc1ccccc1)C(C)C)C(=O)N[C@@H](CCCNC(=N)N)C(=O)Nc1ccc2c(C(F)(F)F)cc(=O)oc2c1` [Z-VLR-AFC] (Cbz-Val-Leu-Arg-{AFC}), the “cleavage of AFC substrate (Vmax)” value (Taenia solium crude mix) is reported as “most cleaved”.

In the case of `C[C@H](N)C(=O)N1CCC[C@H]1C(=O)Nc1ccc2c(C(F)(F)F)cc(=O)oc2c1` [AP-AFC] (H-Ala-Pro-{AFC}), the “cleavage of AFC substrate (Vmax)” value (Taenia solium crude mix) is reported as “most cleaved”.

In the case of `CC(C)C[C@@H](/C=C/S(C)(=O)=O)NC(=O)[C@H](CC(C)C)NC(=O)[C@H](CC(C)C)NC(=O)OCc1ccccc1` [Z-LLL-VS, Z-Leu-Leu-Leu-vinylsulfone], the “ranking by EC100” value [1] is reported as “top inhibitors”.

With “Leu-Phe-Ketoamide-Pyridyl [K-Pyr, reference compound]” the “% Inhibition of T. solium CP in vitro” value [1] was 80% and the “% Prophylactic protection of BALB/c mice” value (Taenia crassiceps cysts; pre-injected two days, 10 T. crassiceps cysts/mouse, dosed daily four weeks, cysts counted after one month) was 40%.

`C[C@H](NC(=O)OCc1ccccc1)C(=O)N[C@@H](C)C(=O)N[C@@H](CCCCN)C(=O)Nc1ccc2c(C(F)(F)F)cc(=O)oc2c1` [Z-AAK-AFC] (Cbz-Ala-Ala-Lys-{AFC}) was tested, and the “cleavage of AFC substrate (Vmax)” value (Taenia solium crude mix) was “most cleaved”.

`CC(C)C[C@H](NC(=O)[C@H](CC(C)C)NC(=O)[C@H](CC(C)C)NC(=O)OCc1ccccc1)C(=O)CF` [Z-LLL-FMK, Z-Leu-Leu-Leu-fluoromethylketone] (Cbz-Leu-Leu-Leu-CH2F) was tested, and the “% inhibition” value (T. solium (cysteine)) was 98%, the “side effects in treated animals” value (BALB/c mice; long or short-term period) was “only negligible side effects” and the “side effects in treated mice” value (BALB/c mice; long-term studies) was “no side effects”. The “% Inhibition of T. solium CP in vitro” value [1] was 100%, the “ranking by EC100” value [1] was “top inhibitors” and the “% inhibition” value (Cathepsin L) was “almost half of the inhibition of the Taenia solium cysteine protease”. The “proliferative response (3H-thymidine incorporation)” value ([2]; inhibitor alone) was “do not induce a proliferative response”, the “toxicity to splenocytes in vitro” value ([2]; preliminary results) was “nontoxic” and the “% inhibition” value (Trypsin) was 0%. For the same compound, the “% Therapeutic protection of BALB/c mice” value (Taenia crassiceps cysts; inhibitor treatment began two weeks after infection) was 60%.

In the case of `C[C@H](NC(=O)[C@H](Cc1ccccc1)NC(=O)OCc1ccccc1)C(=O)N[C@@H](CCCNC(=N)N)C(=O)Nc1ccc2c(C(F)(F)F)cc(=O)oc2c1` [Z-FAR-AFC] (Cbz-Phe-Ala-Arg-{AFC}), the “cleavage of AFC substrate (Vmax)” value (Taenia solium crude mix) is reported as “most cleaved”.

With `N=C(N)NCCC[C@H](NC(=O)[C@H](Cc1ccccc1)NC(=O)OCc1ccccc1)C(=O)Nc1ccc2c(C(F)(F)F)cc(=O)oc2c1` [Z-FR-AFC, Z-Phe-Arg-AFC, reference compound] (Cbz-Phe-Arg-{AFC}) the “cleavage of AFC substrate (Vmax)” value [3] was “cleaved”, the “cleavage of AFC substrate (Vmax)” value ([3]; listed as Z-Phe-Arg-AFC) was “highest Vmax” and the “cleavage of AFC substrate (Vmax)” value (Taenia solium crude mix) was “most cleaved”.

From patent EP1379634B1 (THE UNIVERSITY OF GEORGIA RESEARCH FOUNDATION, INC., priority 2001, dated 2002)
